This is an account of results in PMC7827406, “Structure–Activity Relationship (SAR) Study of Spautin-1 to Entail the Discovery of Novel NEK4 Inhibitors” (International Journal of Molecular Sciences, 2021).

What all share (test): biochemical
Holding throughout (set-up): Eurofins KinaseProfiler full panel at Km ATP, residual kinase activity (%) relative to DMSO

The target in one assay is T1, DRAK1(h) (Homo sapiens, UniProt Q9UEE5).
T1 construct: gene STK17A
T1 sequence (Q9UEE5 1-414): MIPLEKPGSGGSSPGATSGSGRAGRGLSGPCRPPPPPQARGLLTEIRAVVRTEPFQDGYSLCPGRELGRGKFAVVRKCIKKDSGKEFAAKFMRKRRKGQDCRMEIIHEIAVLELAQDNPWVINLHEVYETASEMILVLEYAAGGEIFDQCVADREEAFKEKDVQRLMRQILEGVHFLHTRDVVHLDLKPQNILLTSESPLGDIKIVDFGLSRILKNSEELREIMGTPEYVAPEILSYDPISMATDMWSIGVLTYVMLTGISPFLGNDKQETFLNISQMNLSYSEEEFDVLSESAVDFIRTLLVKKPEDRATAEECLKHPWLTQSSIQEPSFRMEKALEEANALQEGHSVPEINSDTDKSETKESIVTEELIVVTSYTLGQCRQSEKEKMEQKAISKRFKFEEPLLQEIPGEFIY
In a few lines: (§1)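 Compounds screened at 10 µM in radiometric kinase activity assays at Km ATP, reported as remaining kinase activity (%). A KINOMEscan competition-binding screen at 10 µM measured DNA-tagged kinase retained on immobilized active-site ligand by qPCR.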

For assay [1], the target named is T2, PI3 Kinase (p110b/p85b)(m) (Mus musculus, UniProt Q8BTI9).
T2 construct: gene Pik3cb
T2 sequence (Q8BTI9 whole entry): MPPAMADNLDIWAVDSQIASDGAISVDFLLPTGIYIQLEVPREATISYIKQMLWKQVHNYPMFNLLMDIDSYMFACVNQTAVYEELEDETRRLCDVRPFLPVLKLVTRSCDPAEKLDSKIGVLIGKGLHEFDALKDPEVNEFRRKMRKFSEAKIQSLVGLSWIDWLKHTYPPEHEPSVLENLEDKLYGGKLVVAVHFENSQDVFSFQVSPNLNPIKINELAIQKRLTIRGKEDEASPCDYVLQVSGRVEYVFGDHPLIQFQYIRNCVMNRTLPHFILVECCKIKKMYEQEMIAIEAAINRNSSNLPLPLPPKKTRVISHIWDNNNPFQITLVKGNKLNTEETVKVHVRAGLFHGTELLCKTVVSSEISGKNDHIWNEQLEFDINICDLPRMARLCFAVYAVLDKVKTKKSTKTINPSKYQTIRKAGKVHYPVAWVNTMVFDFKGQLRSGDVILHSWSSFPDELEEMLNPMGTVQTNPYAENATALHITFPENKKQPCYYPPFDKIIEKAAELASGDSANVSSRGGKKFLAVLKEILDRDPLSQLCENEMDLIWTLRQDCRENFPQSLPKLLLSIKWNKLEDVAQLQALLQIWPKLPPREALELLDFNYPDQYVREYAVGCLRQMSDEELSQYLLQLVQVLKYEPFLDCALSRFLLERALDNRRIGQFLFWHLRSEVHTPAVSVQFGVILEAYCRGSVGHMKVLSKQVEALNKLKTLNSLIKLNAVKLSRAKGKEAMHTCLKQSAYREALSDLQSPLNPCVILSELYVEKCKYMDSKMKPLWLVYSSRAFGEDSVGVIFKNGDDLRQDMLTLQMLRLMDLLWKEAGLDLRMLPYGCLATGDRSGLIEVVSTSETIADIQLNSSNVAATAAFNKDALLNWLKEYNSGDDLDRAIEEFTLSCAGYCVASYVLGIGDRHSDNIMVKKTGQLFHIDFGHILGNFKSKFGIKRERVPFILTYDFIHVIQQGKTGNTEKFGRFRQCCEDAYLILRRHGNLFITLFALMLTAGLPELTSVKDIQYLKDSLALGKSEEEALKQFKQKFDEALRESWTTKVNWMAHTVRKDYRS
T2 sequence (O08908 whole entry partner): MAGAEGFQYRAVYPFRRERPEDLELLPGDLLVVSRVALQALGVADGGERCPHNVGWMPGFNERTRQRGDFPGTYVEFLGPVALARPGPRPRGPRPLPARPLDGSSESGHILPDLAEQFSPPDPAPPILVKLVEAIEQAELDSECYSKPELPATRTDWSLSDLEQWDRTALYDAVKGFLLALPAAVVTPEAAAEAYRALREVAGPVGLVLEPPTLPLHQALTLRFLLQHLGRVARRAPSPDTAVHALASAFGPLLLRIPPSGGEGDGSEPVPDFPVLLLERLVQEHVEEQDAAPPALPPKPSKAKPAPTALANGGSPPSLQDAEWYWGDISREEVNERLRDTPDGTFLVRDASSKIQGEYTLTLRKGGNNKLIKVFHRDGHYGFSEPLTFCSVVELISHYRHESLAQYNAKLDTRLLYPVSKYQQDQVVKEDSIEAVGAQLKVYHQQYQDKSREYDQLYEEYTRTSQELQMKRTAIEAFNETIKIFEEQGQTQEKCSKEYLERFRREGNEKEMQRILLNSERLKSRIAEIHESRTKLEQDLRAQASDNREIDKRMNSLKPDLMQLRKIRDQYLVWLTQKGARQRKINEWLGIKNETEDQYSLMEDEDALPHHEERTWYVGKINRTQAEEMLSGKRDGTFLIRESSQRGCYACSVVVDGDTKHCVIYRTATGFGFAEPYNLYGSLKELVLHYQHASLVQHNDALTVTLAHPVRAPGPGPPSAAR
The procedure, abridged: as §1

A further assay deals with T3, DDR2(h) (Homo sapiens, UniProt Q16832).
T3 sequence (Q16832 1-855): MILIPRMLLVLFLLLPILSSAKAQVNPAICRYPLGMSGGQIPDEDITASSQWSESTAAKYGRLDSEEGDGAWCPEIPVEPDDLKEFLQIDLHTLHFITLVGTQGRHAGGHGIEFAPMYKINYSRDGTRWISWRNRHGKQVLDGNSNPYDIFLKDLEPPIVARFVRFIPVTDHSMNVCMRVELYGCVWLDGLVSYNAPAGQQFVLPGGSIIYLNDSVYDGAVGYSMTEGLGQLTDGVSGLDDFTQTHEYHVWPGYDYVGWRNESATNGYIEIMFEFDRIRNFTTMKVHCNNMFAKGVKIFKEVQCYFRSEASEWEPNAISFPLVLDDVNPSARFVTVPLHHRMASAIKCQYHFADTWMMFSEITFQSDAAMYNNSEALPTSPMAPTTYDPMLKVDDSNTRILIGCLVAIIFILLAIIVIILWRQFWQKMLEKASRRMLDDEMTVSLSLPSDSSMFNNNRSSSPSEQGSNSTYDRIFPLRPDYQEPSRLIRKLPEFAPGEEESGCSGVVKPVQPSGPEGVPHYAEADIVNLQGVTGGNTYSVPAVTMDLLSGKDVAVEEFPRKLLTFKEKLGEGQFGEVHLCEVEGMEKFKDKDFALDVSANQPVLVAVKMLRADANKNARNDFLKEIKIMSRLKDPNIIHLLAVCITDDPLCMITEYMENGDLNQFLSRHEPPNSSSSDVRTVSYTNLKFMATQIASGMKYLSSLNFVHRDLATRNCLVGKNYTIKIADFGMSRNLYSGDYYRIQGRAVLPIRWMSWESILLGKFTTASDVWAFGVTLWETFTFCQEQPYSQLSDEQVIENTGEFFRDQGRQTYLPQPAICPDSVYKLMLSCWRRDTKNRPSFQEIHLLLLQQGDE
In a few lines: as §1

For the next assay, the target named is T4, EphA3(h) (Homo sapiens, UniProt P29320).
T4 sequence (P29320 1-983): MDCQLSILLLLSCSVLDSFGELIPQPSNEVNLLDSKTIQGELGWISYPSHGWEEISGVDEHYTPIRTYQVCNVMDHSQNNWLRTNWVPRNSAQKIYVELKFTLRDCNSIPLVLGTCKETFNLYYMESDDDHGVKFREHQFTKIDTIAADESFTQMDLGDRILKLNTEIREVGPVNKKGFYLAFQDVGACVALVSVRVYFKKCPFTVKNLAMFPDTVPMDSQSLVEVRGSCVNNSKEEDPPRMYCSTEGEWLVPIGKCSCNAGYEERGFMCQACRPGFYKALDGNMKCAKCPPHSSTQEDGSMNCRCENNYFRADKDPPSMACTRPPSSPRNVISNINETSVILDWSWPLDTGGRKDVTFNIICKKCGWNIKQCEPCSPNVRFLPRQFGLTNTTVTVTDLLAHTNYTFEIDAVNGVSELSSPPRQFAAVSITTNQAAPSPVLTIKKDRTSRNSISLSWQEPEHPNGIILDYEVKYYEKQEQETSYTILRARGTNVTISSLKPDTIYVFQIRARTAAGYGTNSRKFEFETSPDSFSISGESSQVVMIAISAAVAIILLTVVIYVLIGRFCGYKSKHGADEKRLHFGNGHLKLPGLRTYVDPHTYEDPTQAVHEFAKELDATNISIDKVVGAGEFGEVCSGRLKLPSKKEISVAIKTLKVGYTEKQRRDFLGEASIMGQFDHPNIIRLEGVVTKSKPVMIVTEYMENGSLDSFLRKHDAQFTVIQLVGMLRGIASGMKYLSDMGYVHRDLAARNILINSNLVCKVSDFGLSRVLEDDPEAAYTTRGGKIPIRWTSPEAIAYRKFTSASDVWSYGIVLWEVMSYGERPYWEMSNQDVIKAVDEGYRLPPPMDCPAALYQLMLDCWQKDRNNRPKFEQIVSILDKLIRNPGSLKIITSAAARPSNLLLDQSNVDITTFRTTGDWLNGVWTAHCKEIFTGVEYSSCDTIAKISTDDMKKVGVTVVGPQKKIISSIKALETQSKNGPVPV
In a few lines:
as §1

Setting [2] is: read-out: Residual activity (%) Spautin-1 5aa.
The mark [3] stands for this setting: read-out: Residual activity (%) 5as.
Setting [4] is: read-out: Residual activity (%) 5at.
Setting [5] is: read-out: Residual activity (%) 5ay.

Like-named read-outs stand apart in the source and are kept apart here.

Regarding `Fc1ccc(CNc2ncnc3ccc(F)cc23)cc1` [5aa, 6-Fluoro-N-(4-fluorobenzyl)-4-Quinazolinamine], the remaining activity at 10 µM came to 98% on DRAK1(h) (setting [2]), 97% in assay [1] (setting [2]), 87% on DDR2(h) (setting [2]) and 116% at EphA3(h) (setting [2]).
As to `Fc1ccc(CCNc2ncnc3ccc(F)cc23)cc1` [5as, 6-Fluoro-N-[2-(4-Fluorophenyl)Ethyl]-4-Quinazolinamine], the remaining activity at 10 µM was found to be 79% at DRAK1(h) (setting [3]), 86% in assay [1] (setting [3]), 80% on DDR2(h) (setting [3]) and 108% on EphA3(h) (setting [3]).
Take `Fc1ccc2ncnc(NCCc3ccc(Cl)cc3)c2c1` [5at, N-[2-(4-Chlorophenyl)Ethyl]-6-Fluoro-4-Quinazolinamine]: the remaining activity at 10 µM at DRAK1(h) (setting [4]) turned out to be 85%; in assay [1] (setting [4]), 87%; on DDR2(h) (setting [4]), 82%; on EphA3(h) (setting [4]), 94%.
Turning to `COc1ccc2ncnc(Nc3cccc(F)c3)c2c1` [5ay, N-(3-Fluorophenyl)-6-Methoxy-4-Quinazolinamine], the remaining activity at 10 µM came to 57% on DRAK1(h) (setting [5]), 89% in assay [1] (setting [5]), 84% at DDR2(h) (setting [5]) and 110% at EphA3(h) (setting [5]).
